Laboratory results from the NIST ThermoML archive (doi:10.1016/j.jct.2017.03.029).
Several values for one entry are separate records, joined by “and”; a condition that tells them apart may be missing. Identical values can stand only once.

Conditions: Transpiration method

Cc1ccc([N+](=O)[O-])cc1 [1-methyl-4-nitrobenzene]
Conditions	vapor or sublimation pressure
278.2 K, Crystal	0.00067 kPa
279.6 K, Crystal	0.0008 kPa
283.3 K, Crystal	0.00113 kPa
288.2 K, Crystal	0.00211 kPa
288.3 K, Crystal	0.00196 kPa
290.3 K, Crystal	0.00271 kPa
292.2 K, Crystal	0.00326 kPa
293.2 K, Crystal	0.00332 kPa
296.8 K, Crystal	0.00539 kPa
298.2 K, Crystal	0.00566 kPa
298.3 K, Crystal	0.00599 kPa
301.4 K, Crystal	0.00833 kPa
303.2 K, Crystal	0.00937 kPa
304.3 K, Crystal	0.011 kPa
307.4 K, Crystal	0.015 kPa
308.2 K, Crystal	0.0151 kPa and 0.0149 kPa
310.3 K, Crystal	0.0193 kPa
313.2 K, Crystal	0.0252 kPa and 0.0239 kPa
314.3 K, Crystal	0.0292 kPa
315.2 K, Crystal	0.0309 kPa
315.7 K, Crystal	0.033 kPa
316.2 K, Crystal	0.0354 kPa
316.7 K, Crystal	0.0359 kPa
317.2 K, Crystal	0.0383 kPa
318.2 K, Crystal	0.04 kPa and 0.0377 kPa
319.3 K, Crystal	0.0438 kPa
320.3 K, Crystal	0.0483 kPa
321.2 K, Crystal	0.0523 kPa
322.2 K, Crystal	0.0569 kPa
323.1 K, Crystal	0.0544 kPa and 0.0572 kPa
323.3 K, Crystal	0.0626 kPa
324.3 K, Crystal	0.0673 kPa
326.2 K, Liquid	0.0797 kPa
328.1 K, Liquid	0.0862 kPa and 0.0853 kPa
329.2 K, Liquid	0.097 kPa
332.2 K, Liquid	0.1207 kPa and 0.1198 kPa
333 K, Liquid	0.117 kPa and 0.113 kPa
335.3 K, Liquid	0.1411 kPa
338 K, Liquid	0.162 kPa and 0.155 kPa
338.2 K, Liquid	0.168 kPa
341.2 K, Liquid	0.1995 kPa
343 K, Liquid	0.216 kPa and 0.21 kPa
344.4 K, Liquid	0.2417 kPa
347.1 K, Liquid	0.2802 kPa
347.9 K, Liquid	0.274 kPa
348 K, Liquid	0.29 kPa
350.2 K, Liquid	0.3388 kPa
352.9 K, Liquid	0.369 kPa
353 K, Liquid	0.374 kPa
353.2 K, Liquid	0.4024 kPa
357.9 K, Liquid	0.483 kPa
358 K, Liquid	0.504 kPa
362.9 K, Liquid	0.622 kPa
363 K, Liquid	0.66 kPa
367.9 K, Liquid	0.841 kPa and 0.793 kPa

Cc1ccccc1[N+](=O)[O-] [2-nitrotoluene]
Liquid
Conditions	vapor or sublimation pressure
278.3 K	0.00328 kPa
278.4 K	0.0032 kPa
283.3 K	0.00526 kPa and 0.00502 kPa
288.3 K	0.00806 kPa and 0.00804 kPa
293.2 K	0.0124 kPa and 0.0119 kPa
298.2 K	0.0181 kPa and 0.0175 kPa
303.1 K	0.0259 kPa
303.2 K	0.0273 kPa
308.1 K	0.0381 kPa
308.2 K	0.0391 kPa
313.1 K	0.0563 kPa and 0.0555 kPa
318 K	0.0765 kPa
318.1 K	0.081 kPa
323 K	0.108 kPa

Cc1cccc([N+](=O)[O-])c1 [3-nitrotoluene]
Liquid
Conditions	vapor or sublimation pressure
290.6 K	0.00648 kPa
293.3 K	0.00842 kPa
296.3 K	0.0103 kPa
298.2 K	0.012 kPa
299.2 K	0.0127 kPa and 0.0133 kPa
302.2 K	0.0163 kPa
302.3 K	0.0168 kPa
303.2 K	0.0176 kPa and 0.0173 kPa
305.3 K	0.0211 kPa
308.2 K	0.0259 kPa [middle of 4 runs]
308.3 K	0.0267 kPa
311.4 K	0.0335 kPa
313.2 K	0.037 kPa and 0.0363 kPa and 0.0361 kPa
314.3 K	0.0414 kPa
317.2 K	0.0498 kPa
318.1 K	0.0516 kPa
318.2 K	0.0535 kPa and 0.0524 kPa
320.2 K	0.0607 kPa
323.1 K	0.0743 kPa and 0.0718 kPa
323.2 K	0.0732 kPa and 0.0749 kPa
328.1 K	0.103 kPa
333.1 K	0.138 kPa
338 K	0.187 kPa
